Test results as given in EP4813991A1 (iLeadBMS Co., Ltd., priority 2023, dated 2025).
Read-outs that look alike come from different tables or passages of the source.

Key:
CDK12 [1] = target: T1, CDK12 (Homo sapiens, UniProt Q9NYV4); experiment: CDK12 kinase inhibitory activity assay (33P-ATP filter binding); format: biochemical
Procedure, shortened: (§1)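 Radiometric filter-binding read-out: after 20 min compound–enzyme/substrate pre-incubation across 9 concentrations, reaction started with ^33P-γ-ATP and run 120 min at room temperature. Filter-bound ^33P-substrate measured after 0.75 % phosphoric acid washes; remaining activity versus DMSO gives IC50.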

CDK2 = CDK2 (Homo sapiens, UniProt P24941); experiment: CDK2 kinase inhibitory activity assay and selectivity over CDK12; format: biochemical; settings: for IC50: kinase reaction 120 minutes, 33P-gamma-ATP; for CDK2/CDK12: ratio of CDK2 IC50 to CDK12 IC50
Procedure: (§2) Before initiating the CDK1 and CDK2 kinase reactions, each Example compound was dissolved and diluted in DMSO as a solvent across 9 concentration ranges at room temperature. The diluted solutions were then incubated with a mixture of kinase and substrate (and cofactors, if required) for 20 minutes. Next, radioisotope-labeled ATP (^33P-gamma-ATP) was added to proceed with the kinase reaction at room temperature for 120 minutes. After the reaction was completed, the reaction mixture was transferred to a filter paper that binds the radioisotope-labeled catalytic product (^33P-substrate). Unreacted ^33P-ATP was removed by washing with 0.75 % phosphoric acid, and then the radioactive phosphorylated substrate remaining on the filter paper was measured. Kinase activity data were expressed as a percentage of the kinase activity remaining in the test sample compared to a DMSO control group. The half-maximal inhibitory concentration (IC50) for each kinase was calculated using Prism software.
(§3) The CDK1 and CDK2 kinase inhibitory activities of the Example compounds measured by the above method were evaluated according to the following criteria, and the results are presented in Table 14.

CDK13 = CDK13 (Homo sapiens, UniProt Q14004); experiment: CDK13 kinase inhibitory activity assay (33P-ATP filter binding); format: biochemical
Chain of CDK13 (Q14004 whole entry, species assumed): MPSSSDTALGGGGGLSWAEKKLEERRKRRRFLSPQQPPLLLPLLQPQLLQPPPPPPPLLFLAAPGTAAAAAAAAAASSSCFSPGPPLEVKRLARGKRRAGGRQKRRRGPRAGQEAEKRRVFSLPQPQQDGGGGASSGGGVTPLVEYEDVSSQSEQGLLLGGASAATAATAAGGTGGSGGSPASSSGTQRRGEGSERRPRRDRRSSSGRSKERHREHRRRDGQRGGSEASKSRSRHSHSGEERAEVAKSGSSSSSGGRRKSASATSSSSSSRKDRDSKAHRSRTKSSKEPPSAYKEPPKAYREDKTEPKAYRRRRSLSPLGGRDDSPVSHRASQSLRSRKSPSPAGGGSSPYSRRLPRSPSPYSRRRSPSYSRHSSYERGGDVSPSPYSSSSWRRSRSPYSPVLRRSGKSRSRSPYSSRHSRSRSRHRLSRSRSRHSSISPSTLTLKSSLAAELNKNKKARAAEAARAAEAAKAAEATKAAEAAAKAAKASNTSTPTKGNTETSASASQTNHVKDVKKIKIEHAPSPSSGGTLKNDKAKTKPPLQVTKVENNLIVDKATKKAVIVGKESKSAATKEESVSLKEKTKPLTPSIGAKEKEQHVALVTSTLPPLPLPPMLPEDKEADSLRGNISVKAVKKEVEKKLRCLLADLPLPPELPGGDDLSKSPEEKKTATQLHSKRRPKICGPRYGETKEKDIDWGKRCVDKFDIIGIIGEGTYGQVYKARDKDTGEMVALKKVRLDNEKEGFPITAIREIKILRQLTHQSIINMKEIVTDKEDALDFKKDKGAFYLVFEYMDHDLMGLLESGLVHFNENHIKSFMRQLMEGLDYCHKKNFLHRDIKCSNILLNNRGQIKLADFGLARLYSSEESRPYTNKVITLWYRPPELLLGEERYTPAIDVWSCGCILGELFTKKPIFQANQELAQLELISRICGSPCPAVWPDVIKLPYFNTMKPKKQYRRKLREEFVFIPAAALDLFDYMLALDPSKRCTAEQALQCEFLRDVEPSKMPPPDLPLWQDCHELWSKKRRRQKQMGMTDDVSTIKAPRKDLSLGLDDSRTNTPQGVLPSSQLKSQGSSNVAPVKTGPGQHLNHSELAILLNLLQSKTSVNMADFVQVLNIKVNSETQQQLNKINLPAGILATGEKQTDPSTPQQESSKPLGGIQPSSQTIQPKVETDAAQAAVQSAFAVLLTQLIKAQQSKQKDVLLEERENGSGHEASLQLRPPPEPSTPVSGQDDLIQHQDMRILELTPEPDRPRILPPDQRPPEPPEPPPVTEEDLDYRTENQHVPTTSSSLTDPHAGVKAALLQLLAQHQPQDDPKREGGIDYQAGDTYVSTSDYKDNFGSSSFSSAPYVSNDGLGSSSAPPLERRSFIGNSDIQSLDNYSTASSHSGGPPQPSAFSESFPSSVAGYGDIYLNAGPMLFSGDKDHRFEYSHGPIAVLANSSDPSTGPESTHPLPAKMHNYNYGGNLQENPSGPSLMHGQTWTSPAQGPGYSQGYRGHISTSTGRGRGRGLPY
Chain of CDK13 (O75909 whole entry partner, species assumed): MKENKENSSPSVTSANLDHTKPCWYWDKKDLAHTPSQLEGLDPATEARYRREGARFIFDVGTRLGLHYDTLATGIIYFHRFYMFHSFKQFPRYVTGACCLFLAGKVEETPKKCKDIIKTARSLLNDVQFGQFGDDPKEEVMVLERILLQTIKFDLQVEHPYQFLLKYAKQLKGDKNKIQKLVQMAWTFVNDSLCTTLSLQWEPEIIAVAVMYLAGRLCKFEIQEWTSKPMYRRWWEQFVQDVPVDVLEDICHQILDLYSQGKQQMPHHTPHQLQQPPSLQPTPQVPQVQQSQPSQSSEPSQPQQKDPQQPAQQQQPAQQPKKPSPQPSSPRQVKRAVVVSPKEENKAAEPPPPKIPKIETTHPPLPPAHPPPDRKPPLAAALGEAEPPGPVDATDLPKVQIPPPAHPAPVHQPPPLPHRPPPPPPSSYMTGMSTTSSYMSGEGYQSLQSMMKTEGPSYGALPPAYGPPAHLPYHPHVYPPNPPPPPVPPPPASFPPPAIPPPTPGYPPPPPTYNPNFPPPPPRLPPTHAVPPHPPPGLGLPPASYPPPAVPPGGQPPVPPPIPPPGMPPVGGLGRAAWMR
Procedure, shortened: as §1

[2] = system: MDA-MB-231 breast cancer cells; experiment: Proliferation inhibitory activity assay against MDA-MB-231 breast cancer cells; format: cell-based; settings: Homo sapiens, 72 hours, CellTiter Glo, relative IC50
Procedure, shortened: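 Cells grown in L-15 with 10% FBS at 37 °C, 0% CO2, then exposed next day to compounds at 9 concentrations (DMSO vehicle) for 72 h. Viability read by CellTiter Glo luminescence; relative IC50 from dose-response curve fit.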

CDK12 [3] = target: T1, CDK12; experiment: Cellular CDK12 inhibitory activity assay (Ser2 phosphorylation of RNA polymerase II subunit B1 CTD in MDA-MB-231 cells); format: cell-based; set-up: using MDA-MB-231 breast cancer cells; endogenous in cells; host or cells: MDA-MB-231; settings: MDA-MB-231 cells, 6 hours treatment; read-out: pRpbl CTD S2 IC50
Procedure, shortened: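 MDA-MB-231 cells in L-15 with 10 % FBS were treated with compound at 9 concentrations for 6 h at 37 °C, 0 % CO2. In-Cell Western read phospho-Ser2 and total RNA polymerase II CTD on a Li-COR Odyssey; IC50 from 4-parameter dose-response fit.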

CDK1 = CDK1 (Homo sapiens, UniProt P06493); experiment: CDK1 kinase inhibitory activity assay and selectivity over CDK12; format: biochemical; settings: for IC50: kinase reaction 120 minutes, 33P-gamma-ATP; for CDK1/CDK12: ratio of CDK1 IC50 to CDK12 IC50
Chain of CDK1 (P06493 whole entry, species assumed): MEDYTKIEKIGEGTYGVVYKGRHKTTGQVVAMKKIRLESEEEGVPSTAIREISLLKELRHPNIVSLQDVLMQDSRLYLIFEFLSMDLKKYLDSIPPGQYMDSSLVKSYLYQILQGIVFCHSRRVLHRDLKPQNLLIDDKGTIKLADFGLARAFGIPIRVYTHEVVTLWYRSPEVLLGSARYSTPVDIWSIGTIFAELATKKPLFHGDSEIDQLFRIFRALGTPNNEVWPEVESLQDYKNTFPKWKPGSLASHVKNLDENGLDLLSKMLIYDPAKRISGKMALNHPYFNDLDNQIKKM
Chain of CDK1 (P14635 whole entry partner, species assumed): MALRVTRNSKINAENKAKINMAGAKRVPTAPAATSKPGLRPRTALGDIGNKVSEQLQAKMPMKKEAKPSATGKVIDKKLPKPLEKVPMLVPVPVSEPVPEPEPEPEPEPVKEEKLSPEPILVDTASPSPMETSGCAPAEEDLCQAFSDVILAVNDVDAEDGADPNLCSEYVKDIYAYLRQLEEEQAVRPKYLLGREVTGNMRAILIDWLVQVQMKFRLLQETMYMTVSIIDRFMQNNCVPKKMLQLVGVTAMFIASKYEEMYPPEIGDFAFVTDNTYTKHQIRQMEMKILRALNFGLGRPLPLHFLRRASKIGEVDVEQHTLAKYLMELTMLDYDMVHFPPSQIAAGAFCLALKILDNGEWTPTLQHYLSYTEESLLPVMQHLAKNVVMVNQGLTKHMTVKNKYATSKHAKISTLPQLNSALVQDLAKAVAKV
Procedure: as §2, §3

[4] = kinase reaction 120 minutes, 33P-gamma-ATP, read-out: CDK12 IC50
[5] = kinase reaction 120 minutes, 33P-gamma-ATP, read-out: CDK13 IC50

T1 sequence (Q9NYV4 whole entry, species assumed): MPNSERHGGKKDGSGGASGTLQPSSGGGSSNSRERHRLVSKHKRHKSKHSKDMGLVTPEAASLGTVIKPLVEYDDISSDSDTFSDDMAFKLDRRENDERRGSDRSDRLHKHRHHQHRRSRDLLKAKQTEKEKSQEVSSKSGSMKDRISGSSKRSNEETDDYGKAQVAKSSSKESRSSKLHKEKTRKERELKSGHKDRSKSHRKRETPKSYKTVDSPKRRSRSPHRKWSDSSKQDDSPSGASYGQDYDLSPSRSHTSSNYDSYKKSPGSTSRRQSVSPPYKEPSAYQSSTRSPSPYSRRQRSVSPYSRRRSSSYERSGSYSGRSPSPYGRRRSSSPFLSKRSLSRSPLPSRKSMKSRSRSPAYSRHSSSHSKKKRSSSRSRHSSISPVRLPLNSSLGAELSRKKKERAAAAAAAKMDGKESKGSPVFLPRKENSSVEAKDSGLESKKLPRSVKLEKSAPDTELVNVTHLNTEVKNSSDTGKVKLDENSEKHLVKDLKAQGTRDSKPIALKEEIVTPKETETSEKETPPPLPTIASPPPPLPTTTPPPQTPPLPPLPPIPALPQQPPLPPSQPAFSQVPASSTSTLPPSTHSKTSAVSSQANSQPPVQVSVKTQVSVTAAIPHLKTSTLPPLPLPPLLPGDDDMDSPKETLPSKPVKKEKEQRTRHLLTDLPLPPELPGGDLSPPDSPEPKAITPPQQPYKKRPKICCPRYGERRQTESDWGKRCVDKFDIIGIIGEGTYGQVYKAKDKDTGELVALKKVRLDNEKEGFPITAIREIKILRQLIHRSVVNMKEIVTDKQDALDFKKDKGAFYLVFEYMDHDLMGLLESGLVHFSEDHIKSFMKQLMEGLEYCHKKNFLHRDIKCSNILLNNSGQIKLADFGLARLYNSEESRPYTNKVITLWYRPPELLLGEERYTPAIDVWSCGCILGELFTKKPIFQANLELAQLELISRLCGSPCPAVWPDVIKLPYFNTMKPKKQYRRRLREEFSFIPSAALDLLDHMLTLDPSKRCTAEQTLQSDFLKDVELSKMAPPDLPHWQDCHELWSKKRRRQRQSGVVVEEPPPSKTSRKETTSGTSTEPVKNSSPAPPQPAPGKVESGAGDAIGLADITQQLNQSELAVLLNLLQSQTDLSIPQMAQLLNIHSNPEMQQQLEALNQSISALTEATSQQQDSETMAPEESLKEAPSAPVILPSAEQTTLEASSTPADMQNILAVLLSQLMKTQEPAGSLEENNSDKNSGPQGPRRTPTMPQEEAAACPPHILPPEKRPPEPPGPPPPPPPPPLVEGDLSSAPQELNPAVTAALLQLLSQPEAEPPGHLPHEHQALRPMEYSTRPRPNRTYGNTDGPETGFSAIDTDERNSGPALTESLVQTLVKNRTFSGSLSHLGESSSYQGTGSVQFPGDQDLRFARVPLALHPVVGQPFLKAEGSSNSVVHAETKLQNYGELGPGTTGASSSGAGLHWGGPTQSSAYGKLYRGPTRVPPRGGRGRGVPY
T1 sequence (O75909 whole entry partner, species assumed): as the sequence (O75909 whole entry partner, species assumed) above

| SMILES | IC50 (CDK12 [1]; [4]) | IC50 (CDK2) | CDK2/CDK12 (CDK2) | IC50 (CDK13) | IC50 [2] | IC50 (CDK12 [3]) | IC50 (CDK1) | CDK1/CDK12 (CDK1) | IC50 (CDK13; [5]) | IC50 (CDK12 [1]) |
| --- | --- | --- | --- | --- | --- | --- | --- | --- | --- | --- |
| Fc1ccc2nc(CNc3cc(N4C5CCC4COC5)nn4c(C(F)(F)F)cnc34)[nH]c2c1F [Example 7, 6-(3-oxa-8-azabicyclo[3.2.1]octan-8-yl)-N-((6,7-difluoro-1H-benzo[d]imidazol-2-yl)methyl)-3-(trifluoromethyl)imidazo[1,2-b]pyridazin-8-amine] | 100 to 500 nM | > 1000 nM | C (CDK1/CDK12 or CDK2/CDK12 ≤ 100-fold) | < 100 nM | ≤ 50 nM | < 300 nM | > 1000 nM | C (CDK1/CDK12 or CDK2/CDK12 ≤ 100-fold) | – | – |
| Fc1ccc2nc(CNc3cc(N4C5CCC4CNC5)nn4c(C(F)(F)F)cnc34)[nH]c2c1F [Example 11, 6-(3,8-diazabicyclo[3.2.1]octan-8-yl)-N-((6,7-difluoro-1H-benzo[d]imidazol-2-yl)methyl)-3-(trifluoromethyl)imidazo[1,2-b]pyridazin-8-amine] | < 100 nM | 100 to 1000 nM | B (100-fold < CDK1/CDK12 or CDK2/CDK12 ≤ 500-fold) | – | ≤ 50 nM | < 300 nM | 100 to 1000 nM | B (100-fold < CDK1/CDK12 or CDK2/CDK12 ≤ 500-fold) | < 100 nM | – |
| CN1CC2CCC(C1)N2c1cc(NCc2nc3ccc(F)c(F)c3[nH]2)c2ncc(C(F)(F)F)n2n1 [Example 13] | < 100 nM | > 1000 nM | B (100-fold < CDK1/CDK12 or CDK2/CDK12 ≤ 500-fold) | – | ≤ 50 nM | < 300 nM | > 1000 nM | A (CDK1/CDK12 or CDK2/CDK12 > 500-fold) | < 100 nM | – |
| OC1CC2CCC(C1)N2c1cc(NCc2nc3ccc(F)c(F)c3[nH]2)c2ncc(C(F)(F)F)n2n1 (stereo not drawn) [Example 14, 8-(8-(((6,7-difluoro-1H-benzo[d]imidazol-2-yl)methyl)amino)-3-(trifluoromethyl)imidazo[1,2-b]pyridazin-6-yl)-8-azabicyclo[3.2.1]octan-3-ol] | 100 to 500 nM | 100 to 1000 nM | C (CDK1/CDK12 or CDK2/CDK12 ≤ 100-fold) | – | ≤ 50 nM | < 300 nM | > 1000 nM | C (CDK1/CDK12 or CDK2/CDK12 ≤ 100-fold) | < 100 nM | – |
| OC1CN(c2cc(NCc3nc4ccc(F)c(F)c4[nH]3)c3ncc(C(F)(F)F)n3n2)C1 [Example 16, 1-(8-(((6,7-difluoro-1H-benzo[d]imidazol-2-yl)methyl)amino)-3-(trifluoromethyl)imidazo[1,2-b]pyridazin-6-yl)azetidin-3-ol] | < 100 nM | > 1000 nM | C (CDK1/CDK12 or CDK2/CDK12 ≤ 100-fold) | – | ≤ 50 nM | 300 to 3000 nM | > 1000 nM | B (100-fold < CDK1/CDK12 or CDK2/CDK12 ≤ 500-fold) | < 100 nM | – |
| Fc1ccc2nc(CNc3cc(N4CCNCC4)nn4c(C(F)(F)F)cnc34)[nH]c2c1F [Example 17] | < 100 nM | > 1000 nM | B (100-fold < CDK1/CDK12 or CDK2/CDK12 ≤ 500-fold) | – | ≤ 50 nM | < 300 nM | > 1000 nM | A (CDK1/CDK12 or CDK2/CDK12 > 500-fold) | < 100 nM | – |
| NC1CCN(c2cc(NCc3nc4ccc(F)c(F)c4[nH]3)c3ncc(C(F)(F)F)n3n2)CC1 [Example 18] | < 100 nM | > 1000 nM | A (CDK1/CDK12 or CDK2/CDK12 > 500-fold) | – | ≤ 50 nM | < 300 nM | > 1000 nM | A (CDK1/CDK12 or CDK2/CDK12 > 500-fold) | < 100 nM | – |
| OC1CCN(c2cc(NCc3nc4ccc(F)c(F)c4[nH]3)c3ncc(C(F)(F)F)n3n2)CC1 [Example 19, 1-(8-(((6,7-difluoro-1H-benzo[d]imidazol-2-yl)methyl)amino)-3-(trifluoromethyl)imidazo[1,2-b]pyridazin-6-yl)piperidin-4-ol] | < 100 nM | > 1000 nM | A (CDK1/CDK12 or CDK2/CDK12 > 500-fold) | < 100 nM | ≤ 50 nM | 300 to 3000 nM | > 1000 nM | A (CDK1/CDK12 or CDK2/CDK12 > 500-fold) | – | – |
| C#Cc1cnc2c(NCc3nc4ccc(F)c(F)c4[nH]3)cc(-c3cnc(N)nc3)nn12 [Example 22, 6-(2-aminopyrimidin-5-yl)-N-((6,7-difluoro-1H-benzo[d]imidazol-2-yl)methyl)-3-ethynylimidazo[1,2-b]pyridazin-8-amine] | < 100 nM | > 1000 nM | A (CDK1/CDK12 or CDK2/CDK12 > 500-fold) | < 100 nM | 50 to 500 nM | < 300 nM | > 1000 nM | A (CDK1/CDK12 or CDK2/CDK12 > 500-fold) | – | – |
| Fc1ccc2nc(CNc3cc(N4CCOCC4)nn4c(C5CC5)cnc34)[nH]c2c1F [Example 23, 3-cyclopropyl-N-((6,7-difluoro-lH-benzo[d]imidazol-2-yl)methyl)-6-morpholinoimidazo[1,2-b]pyridazin-8-amine] | – | > 1000 nM | – | – | 50 to 500 nM | 300 to 3000 nM | > 1000 nM | – | < 100 nM | 100 to 500 nM |
| Nc1ncc(-c2cc(NCc3nc4ccc(F)c(F)c4[nH]3)c3ncc(C(F)(F)F)n3n2)cn1 [Example 35] | < 100 nM | > 1000 nM | B (100-fold < CDK1/CDK12 or CDK2/CDK12 ≤ 500-fold) | – | ≤ 50 nM | < 300 nM | > 1000 nM | A (CDK1/CDK12 or CDK2/CDK12 > 500-fold) | < 100 nM | – |
| OC1CN(c2cc(NCc3nc4cc(Cl)c(Cl)cc4[nH]3)c3ncc(C(F)(F)F)n3n2)C1 [Example 41, 1-(8-(((5,6-dichloro-1H-benzo[d]imidazol-2-yl)methyl)amino)-3-(trifluoromethyl)imidazo[1,2-b]pyridazin-6-yl)azetidin-3-ol] | < 100 nM | > 1000 nM | B (100-fold < CDK1/CDK12 or CDK2/CDK12 ≤ 500-fold) | – | 50 to 500 nM | < 300 nM | > 1000 nM | B (100-fold < CDK1/CDK12 or CDK2/CDK12 ≤ 500-fold) | < 100 nM | – |
| FC(F)(F)c1cnc2c(NCc3nc4cc(Cl)c(Cl)cc4[nH]3)cc(N3CC4CCC(C3)O4)nn12 [Example 42] | – | > 1000 nM | – | – | 50 to 500 nM | 300 to 3000 nM | > 1000 nM | – | < 100 nM | 100 to 500 nM |
| N#CC1CCN(c2cc(NCc3nc4cc(Cl)c(Cl)cc4[nH]3)c3ncc(C(F)(F)F)n3n2)CC1 [Example 44, 1-(8-(((5,6-dichloro-1H-benzo[d]imidazol-2-yl)methyl)amino)-3-(trifluoromethyl)imidazo[1,2-b]pyridazin-6-yl)piperidine-4-carbonitrile] | 100 to 500 nM | > 1000 nM | – | – | ≤ 50 nM | < 300 nM | > 1000 nM | – | 100 to 500 nM | – |
| CN1CC2(C1)CN(c1cc(NCc3nc4cc(Cl)c(Cl)cc4[nH]3)c3ncc(C(F)(F)F)n3n1)C2 [Example 46, N-((5,6-dichloro-1H-benzo[d]imidazol-2-yl)methyl)-6-(6-methyl-2,6-diazaspiro[3.3]heptan-2-yl)-3-(trifluoromethyl)imidazo[1,2-b]pyridazin-8-amine] | < 100 nM | > 1000 nM | B (100-fold < CDK1/CDK12 or CDK2/CDK12 ≤ 500-fold) | – | ≤ 50 nM | < 300 nM | > 1000 nM | – | < 100 nM | – |
| O=C(CO)C1CCN(c2cc(NCc3nc4cc(Cl)c(Cl)cc4[nH]3)c3ncc(C(F)(F)F)n3n2)CC1 [Example 114, 1-(1-(8-(((5,6-dichloro-1H-benzo[d]imidazol-2-yl)methyl)amino)-3-(trifluoromethyl)imidazo[1,2-b]pyridazin-6-yl)piperidin-4-yl)-2-hydroxyethan-1-one] | < 100 nM | – | – | < 100 nM | ≤ 50 nM | < 300 nM | – | – | – | – |
